Laboratory results taken from PubChem BioAssay (NCI).
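1) Cells in 96-well plates. 2) Compound, 48 h, 5 concentrations. 3) Linear interpolation between surrounding doses. 4) Unreached endpoint = highest concentration. The concentration for 50% growth inhibition is given as GI50. Definition used: TGI = concentration required for complete inhibition of growth.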

Key:
Assay in all cases: DTP human tumour cell line panel, 48 h
SNB-75 CNS = system: SNB-75 CNS
SK-MEL-28 melanoma = system: SK-MEL-28 melanoma
ACHN renal = system: ACHN renal
UACC-62 melanoma = system: UACC-62 melanoma
M14 melanoma = system: M14 melanoma
RXF 393 renal = system: RXF 393 renal
HS 578T breast = system: HS 578T breast
HOP-92 NSCLC = system: HOP-92 NSCLC
HCT-15 colon = system: HCT-15 colon
SR leukemia = system: SR leukemia
K-562 leukemia = system: K-562 leukemia
BT-549 breast = system: BT-549 breast
NCI-H226 lung = system: NCI-H226 lung
SNB-19 CNS = system: SNB-19 CNS
CCRF-CEM leukemia = system: CCRF-CEM leukemia
PC-3 prostate = system: PC-3 prostate
SN12C renal = system: SN12C renal
A498 renal = system: A498 renal
UACC-257 melanoma = system: UACC-257 melanoma
U251 CNS = system: U251 CNS
MCF7 breast = system: MCF7 breast
SW-620 colon = system: SW-620 colon
UO-31 renal = system: UO-31 renal
HT29 colon = system: HT29 colon
RPMI-8226 leukemia = system: RPMI-8226 leukemia
TK-10 renal = system: TK-10 renal
MDA-MB-231 breast = system: MDA-MB-231 breast
NCI/ADR-RES ovarian = system: NCI/ADR-RES ovarian
SF-268 CNS = system: SF-268 CNS
SF-539 CNS = system: SF-539 CNS
KM12 colon = system: KM12 colon
OVCAR-5 ovarian = system: OVCAR-5 ovarian
LOX IMVI melanoma = system: LOX IMVI melanoma
A549 NSCLC = system: A549 NSCLC
MOLT-4 leukemia = system: MOLT-4 leukemia
SK-MEL-2 melanoma = system: SK-MEL-2 melanoma
HOP-62 NSCLC = system: HOP-62 NSCLC
OVCAR-8 ovarian = system: OVCAR-8 ovarian
HCT-116 colon = system: HCT-116 colon
HL-60(TB) leukemia = system: HL-60(TB) leukemia
NCI-H23 lung = system: NCI-H23 lung
DU-145 prostate = system: DU-145 prostate
786-0 renal = system: 786-0 renal
SK-MEL-5 melanoma = system: SK-MEL-5 melanoma
SF-295 CNS = system: SF-295 CNS
SK-OV-3 ovarian = system: SK-OV-3 ovarian
CAKI-1 renal = system: CAKI-1 renal
EKVX NSCLC = system: EKVX NSCLC
OVCAR-4 ovarian = system: OVCAR-4 ovarian
NCI-H522 lung = system: NCI-H522 lung
IGROV1 ovarian = system: IGROV1 ovarian
NCI-H460 lung = system: NCI-H460 lung
MALME-3M melanoma = system: MALME-3M melanoma
HCC-2998 colon = system: HCC-2998 colon
MDA-MB-435 = system: MDA-MB-435

SMILES: Cn1cc(-c2ccc(-c3cn(C)c4ccc(Cl)cc34)[nH]2)c2cc(Cl)ccc21
- GI50 (SNB-75 CNS): 1750 nM
- TGI (SNB-75 CNS): 4380 nM
- GI50 (SK-MEL-28 melanoma): 1820 nM
- TGI (SK-MEL-28 melanoma): 3950 nM
- GI50 (ACHN renal): 1080 nM
- TGI (ACHN renal): 2280 nM
- GI50 (UACC-62 melanoma): 946 nM
- TGI (UACC-62 melanoma): 2390 nM
- GI50 (M14 melanoma): 1620 nM
- TGI (M14 melanoma): 4190 nM
- GI50 (RXF 393 renal): 882 nM
- TGI (RXF 393 renal): 2310 nM
- GI50 (HS 578T breast): 1140 nM
- TGI (HS 578T breast): 5370 nM
- GI50 (HOP-92 NSCLC): 1150 nM
- TGI (HOP-92 NSCLC): 3280 nM
- GI50 (HCT-15 colon): 1100 nM
- TGI (HCT-15 colon): 2500 nM
- GI50 (SR leukemia): 617 nM
- TGI (SR leukemia): 3190 nM
- GI50 (K-562 leukemia): 377 nM
- TGI (K-562 leukemia): 2030 nM
- GI50 (BT-549 breast): 419 nM
- TGI (BT-549 breast): 1710 nM
- GI50 (NCI-H226 lung): 1930 nM
- TGI (NCI-H226 lung): 4250 nM
- GI50 (SNB-19 CNS): 1390 nM
- TGI (SNB-19 CNS): 4060 nM
- GI50 (CCRF-CEM leukemia): 373 nM
- TGI (CCRF-CEM leukemia): 1700 nM
- GI50 (PC-3 prostate): 434 nM
- TGI (PC-3 prostate): 1720 nM
- GI50 (SN12C renal): 2390 nM
- TGI (SN12C renal): 5720 nM
- GI50 (A498 renal): 4170 nM
- TGI (A498 renal): 19000 nM
- GI50 (UACC-257 melanoma): 2250 nM
- TGI (UACC-257 melanoma): 4490 nM
- GI50 (U251 CNS): 398 nM
- TGI (U251 CNS): 1290 nM
- GI50 (MCF7 breast): 2850 nM
- TGI (MCF7 breast): 15400 nM
- GI50 (SW-620 colon): 647 nM
- TGI (SW-620 colon): 3140 nM
- GI50 (UO-31 renal): 208 nM
- TGI (UO-31 renal): 503 nM
- GI50 (HT29 colon): 3920 nM
- TGI (HT29 colon): 16000 nM
- GI50 (RPMI-8226 leukemia): 356 nM
- TGI (RPMI-8226 leukemia): 1310 nM
- GI50 (TK-10 renal): 3140 nM
- TGI (TK-10 renal): 9800 nM
- GI50 (MDA-MB-231 breast): 442 nM
- TGI (MDA-MB-231 breast): 1980 nM
- GI50 (NCI/ADR-RES ovarian): 1840 nM
- TGI (NCI/ADR-RES ovarian): > 100000 nM
- GI50 (SF-268 CNS): 1380 nM
- TGI (SF-268 CNS): 4090 nM
- GI50 (SF-539 CNS): 1140 nM
- TGI (SF-539 CNS): 3450 nM
- GI50 (KM12 colon): 1200 nM
- TGI (KM12 colon): 3770 nM
- GI50 (OVCAR-5 ovarian): 663 nM
- TGI (OVCAR-5 ovarian): 2820 nM
- GI50 (LOX IMVI melanoma): 1220 nM
- TGI (LOX IMVI melanoma): 2670 nM
- GI50 (A549 NSCLC): 1790 nM
- TGI (A549 NSCLC): 4190 nM
- GI50 (MOLT-4 leukemia): 2850 nM
- TGI (MOLT-4 leukemia): 11000 nM
- GI50 (SK-MEL-2 melanoma): 1990 nM
- TGI (SK-MEL-2 melanoma): 4910 nM
- GI50 (HOP-62 NSCLC): 2250 nM
- TGI (HOP-62 NSCLC): 7760 nM
- GI50 (OVCAR-8 ovarian): 1440 nM
- TGI (OVCAR-8 ovarian): 5580 nM
- GI50 (HCT-116 colon): 1990 nM
- TGI (HCT-116 colon): 5620 nM
- GI50 (HL-60(TB) leukemia): 438 nM
- TGI (HL-60(TB) leukemia): 2620 nM
- GI50 (NCI-H23 lung): 3230 nM
- TGI (NCI-H23 lung): 24700 nM
- GI50 (DU-145 prostate): 3570 nM
- TGI (DU-145 prostate): 15300 nM
- GI50 (786-0 renal): 5310 nM
- TGI (786-0 renal): 29500 nM

SMILES: COc1ccc2nc3ccccc3c(NCc3ccc(Cl)cc3)c2c1
- GI50 (SNB-75 CNS): 1270 nM
- TGI (SNB-75 CNS): 2620 nM
- GI50 (SK-MEL-5 melanoma): 1760 nM
- TGI (SK-MEL-5 melanoma): 3190 nM
- GI50 (SK-MEL-28 melanoma): 1780 nM
- TGI (SK-MEL-28 melanoma): 3360 nM
- GI50 (ACHN renal): 1550 nM
- TGI (ACHN renal): 2890 nM
- GI50 (UACC-62 melanoma): 1660 nM
- TGI (UACC-62 melanoma): 3210 nM
- GI50 (SF-295 CNS): 1500 nM
- TGI (SF-295 CNS): 2930 nM
- GI50 (M14 melanoma): 1810 nM
- TGI (M14 melanoma): 3470 nM
- GI50 (RXF 393 renal): 1450 nM
- TGI (RXF 393 renal): 3000 nM
- GI50 (SK-OV-3 ovarian): 3190 nM
- TGI (SK-OV-3 ovarian): 9800 nM
- GI50 (HOP-92 NSCLC): 1480 nM
- TGI (HOP-92 NSCLC): 3350 nM
- GI50 (HCT-15 colon): 1730 nM
- TGI (HCT-15 colon): 3880 nM
- GI50 (CAKI-1 renal): 1690 nM
- TGI (CAKI-1 renal): 3230 nM
- GI50 (BT-549 breast): 5640 nM
- TGI (BT-549 breast): 20800 nM
- GI50 (NCI-H226 lung): 2140 nM
- TGI (NCI-H226 lung): 5740 nM
- GI50 (SNB-19 CNS): 2260 nM
- TGI (SNB-19 CNS): 6350 nM
- GI50 (CCRF-CEM leukemia): 2660 nM
- TGI (CCRF-CEM leukemia): 9480 nM
- GI50 (PC-3 prostate): 1790 nM
- TGI (PC-3 prostate): 4240 nM
- GI50 (EKVX NSCLC): 2300 nM
- TGI (EKVX NSCLC): 5920 nM
- GI50 (SN12C renal): 1730 nM
- TGI (SN12C renal): 3860 nM
- GI50 (A498 renal): 1440 nM
- TGI (A498 renal): 2770 nM
- GI50 (UACC-257 melanoma): 2030 nM
- TGI (UACC-257 melanoma): 4570 nM
- GI50 (OVCAR-4 ovarian): 2130 nM
- TGI (OVCAR-4 ovarian): 6350 nM
- GI50 (NCI-H522 lung): 2020 nM
- TGI (NCI-H522 lung): 5080 nM
- GI50 (SW-620 colon): 1650 nM
- TGI (SW-620 colon): 3470 nM
- GI50 (UO-31 renal): 1340 nM
- TGI (UO-31 renal): 2750 nM
- GI50 (HT29 colon): 2020 nM
- TGI (HT29 colon): 7080 nM
- GI50 (TK-10 renal): 1960 nM
- TGI (TK-10 renal): 3840 nM
- GI50 (NCI/ADR-RES ovarian): 1800 nM
- TGI (NCI/ADR-RES ovarian): 3970 nM
- GI50 (SF-268 CNS): 1980 nM
- TGI (SF-268 CNS): 4610 nM
- GI50 (IGROV1 ovarian): 2400 nM
- TGI (IGROV1 ovarian): 6650 nM
- GI50 (SF-539 CNS): 1710 nM
- TGI (SF-539 CNS): 3240 nM
- GI50 (KM12 colon): 3080 nM
- TGI (KM12 colon): 11300 nM
- GI50 (NCI-H460 lung): 1880 nM
- TGI (NCI-H460 lung): 3690 nM
- GI50 (OVCAR-5 ovarian): 1910 nM
- TGI (OVCAR-5 ovarian): 4900 nM
- GI50 (A549 NSCLC): 2060 nM
- TGI (A549 NSCLC): 4890 nM
- GI50 (MOLT-4 leukemia): 3190 nM
- TGI (MOLT-4 leukemia): 13300 nM
- GI50 (MALME-3M melanoma): 1810 nM
- TGI (MALME-3M melanoma): 3390 nM
- GI50 (HCC-2998 colon): 1760 nM
- TGI (HCC-2998 colon): 3240 nM
- GI50 (SK-MEL-2 melanoma): 1930 nM
- TGI (SK-MEL-2 melanoma): 3700 nM
- GI50 (HOP-62 NSCLC): 1720 nM
- TGI (HOP-62 NSCLC): 3440 nM
- GI50 (OVCAR-8 ovarian): 2250 nM
- TGI (OVCAR-8 ovarian): 5910 nM
- GI50 (HCT-116 colon): 1790 nM
- TGI (HCT-116 colon): 4140 nM
- GI50 (HL-60(TB) leukemia): 2290 nM
- TGI (HL-60(TB) leukemia): 5240 nM
- GI50 (NCI-H23 lung): 1860 nM
- TGI (NCI-H23 lung): 4520 nM
- GI50 (MDA-MB-435): 1500 nM
- TGI (MDA-MB-435): 3060 nM
- GI50 (DU-145 prostate): 2650 nM
- TGI (DU-145 prostate): 7330 nM
- GI50 (786-0 renal): 1730 nM
- TGI (786-0 renal): 3200 nM
